According to ChEMBL document CHEMBL1132977 (J Med Chem, 2000):

Target: Peptidyl-prolyl cis-trans isomerase FKBP1A (Homo sapiens, UniProt P62942, F36V)
Test: Binding affinity for Mutant F36V-FK506 binding protein by competitive assay based on fluorescence polarization.

Chain of Peptidyl-prolyl cis-trans isomerase FKBP1A (P62942 2-108 F37V limits assumed): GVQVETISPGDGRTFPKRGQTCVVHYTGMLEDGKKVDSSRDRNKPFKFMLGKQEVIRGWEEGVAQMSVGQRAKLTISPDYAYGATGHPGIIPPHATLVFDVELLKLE

Row | Compound | IC50 [nM]
1 | COc1ccc(CCC(OC(=O)[C@@H]2CCCCN2C(=O)[C@H](C)c2ccccc2)c2cccc(OCC(=O)O)c2)cc1OC (stereo partly drawn) | 590
2 | CCC[C@@H](C(=O)N1CCCC[C@H]1C(=O)OC(CCc1ccc(OC)c(OC)c1)c1cccc(OCC(=O)O)c1)c1cc(OC)c(OC)c(OC)c1 (stereo partly drawn) | 43
3 | COc1ccc(CCC(OC(=O)[C@@H]2CCCCN2C(=O)[C@H](c2ccccc2)C(C)C)c2cccc(OCC(=O)O)c2)cc1OC (stereo partly drawn) | 150
4 | COc1ccc(CC[C@@H](OC(=O)[C@@H]2CCCCN2C(=O)Cc2ccccc2)c2cccc(OCC(=O)O)c2)cc1OC | 1530
5 | COc1ccc(CCC(OC(=O)[C@@H]2CCCCN2C(=O)[C@@H](C)c2ccccc2)c2cccc(OCC(=O)O)c2)cc1OC (stereo partly drawn) | 94
6 | CC[C@H](C(=O)N1CCCC[C@H]1C(=O)O[C@H](CCc1ccc(OC)c(OC)c1)c1cccc(OCC(=O)O)c1)c1ccccc1 | 40
7 | COc1ccc(CCC(OC(=O)[C@@H]2CCCCN2C(=O)C(c2ccccc2)c2ccccc2)c2cccc(OCC(=O)O)c2)cc1OC (stereo partly drawn) | 273
8 | CC[C@@H](C(=O)N1CCCC[C@H]1C(=O)OC(CCc1ccc(OC)c(OC)c1)c1cccc(OCC(=O)O)c1)c1cc(OC)c(OC)c(OC)c1 (stereo partly drawn) | 187
9 | COc1ccc(CCC(OC(=O)[C@@H]2CCCCN2C(=O)[C@@H](c2cc(OC)c(OC)c(OC)c2)C(C)C)c2cccc(OCC(=O)O)c2)cc1OC (stereo partly drawn) | 65
10 | CC[C@@H](C(=O)N1CCCC[C@H]1C(=O)OC(CCc1ccc(OC)c(OC)c1)c1cccc(OCC(=O)O)c1)c1ccccc1 (stereo partly drawn) | 133
11 | COc1ccc(CCC(OC(=O)[C@@H]2CCCCN2C(=O)[C@H](CC2CC2)c2cc(OC)c(OC)c(OC)c2)c2cccc(OCC(=O)O)c2)cc1OC (stereo partly drawn) | 126

The next molecules have a lower IC50 than those just listed; values first:

Row | IC50 [nM] | Compound
12 | 19 | COc1ccc(CCC(OC(=O)[C@@H]2CCCCN2C(=O)[C@@H](c2ccccc2)C(C)C)c2cccc(OCC(=O)O)c2)cc1OC (stereo partly drawn)
13 | 1.5 | C=CC[C@H](C(=O)N1CCCC[C@H]1C(=O)OC(CCc1ccc(OC)c(OC)c1)c1cccc(OCC(=O)O)c1)c1cc(OC)c(OC)c(OC)c1 (stereo partly drawn)
14 | 1.8 | CC[C@H](C(=O)N1CCCC[C@H]1C(=O)O[C@H](CCc1ccc(OC)c(OC)c1)c1cccc(OCC(=O)O)c1)c1cc(OC)c(OC)c(OC)c1
15 | 4.4 | COc1ccc(CCC(OC(=O)[C@@H]2CCCCN2C(=O)[C@@H](CC2CC2)c2cc(OC)c(OC)c(OC)c2)c2cccc(OCC(=O)O)c2)cc1OC (stereo partly drawn)
16 | 3.8 | CCC[C@H](C(=O)N1CCCC[C@H]1C(=O)OC(CCc1ccc(OC)c(OC)c1)c1cccc(OCC(=O)O)c1)c1cc(OC)c(OC)c(OC)c1 (stereo partly drawn)
17 | 5.8 | COc1ccc(CCC(OC(=O)[C@@H]2CCCCN2C(=O)[C@H](c2cc(OC)c(OC)c(OC)c2)C(C)C)c2cccc(OCC(=O)O)c2)cc1OC (stereo partly drawn)
18 | 19 | C=CC[C@@H](C(=O)N1CCCC[C@H]1C(=O)OC(CCc1ccc(OC)c(OC)c1)c1cccc(OCC(=O)O)c1)c1cc(OC)c(OC)c(OC)c1 (stereo partly drawn)
